# Laboratory results from ChEMBL document CHEMBL5154732, “Discovery of indol-6-yl-pyrrolo[2,3-c]pyridin-7-one derivatives as bromodomain-containing protein 4 (BRD4) inhibitors for the treatment of kidney fibrosis” (Eur J Med Chem, 2022).
# pIC50: −log10 of the molar value. The source made the active and inactive calls. The rule behind the calls is not given here.
# Tests used:
# [1] = biological target: Bromodomain-containing protein 4 (Homo sapiens, UniProt O60885); assay: Inhibition of His-tagged […] recombinant BRD4 (unknown origin) (21 to 153 residues) using SGRGK(Ac)GGK(Ac)GLGK(Ac)GGAK(Ac)RHRK(Biotin)-OH as substrate measured after 1 hr by HTRF assay
# [2] = Half life in ICR mouse at 30 mg/kg, po measured at 0.083 to 24 hrs by LC-MS/MS analysis; format: ADME, organism-based; settings: in vivo, time 0.083-24 hrs
# [3] = Toxicity in mouse assessed as pathological changes in liver at 30 mg/kg/day by H and E staining method; format: organism-based; settings: in vivo
# [4] = Toxicity in mouse assessed as pathological changes in lung at 30 mg/kg/day by H and E staining method; format: organism-based; settings: in vivo
# [5] = Toxicity in mouse assessed as effect on serum urea level at 30 mg/kg/day; format: organism-based; settings: in vivo
# [6] = biological target: Bromodomain testis-specific protein (Homo sapiens, UniProt Q58F21); assay: Inhibition of His-tagged recombinant BRDT (unknown origin) (21 to 153 residues) using SGRGK(Ac)GGK(Ac)GLGK(Ac)GGAK(Ac)RHRK(Biotin)-OH as substrate measured after 1 hr by HTRF assay
# [7] = Tmax in ICR mouse at 30 mg/kg, po measured at 0.083 to 24 hrs by LC-MS/MS analysis; format: ADME, organism-based; settings: in vivo, time 0.083-24 hrs
# [8] = Toxicity in mouse assessed as pathological changes in spleen at 30 mg/kg/day by H and E staining method; format: organism-based; settings: in vivo
# [9] = Volume of distribution at steady state in ICR mouse at 2 mg/kg, iv measured at 0.083 to 24 hrs by LC-MS/MS analysis; format: ADME, organism-based; settings: in vivo, time 0.083-24 hrs, read-out: Vdss
# [10] = Cmax in ICR mouse at 30 mg/kg, po measured at 0.083 to 24 hrs by LC-MS/MS analysis; format: ADME, organism-based; design: time 0.083-24 hrs, dose 30 mg/kg, route po; settings: in vivo
# [11] = biological target: Bromodomain-containing protein 3 (Homo sapiens, UniProt Q15059); assay: Inhibition of His-tagged recombinant BRD3 (unknown origin) (11 to 166 residues) using SGRGK(Ac)GGK(Ac)GLGK(Ac)GGAK(Ac)RHRK(Biotin)-OH as substrate measured after 1 hr by HTRF assay
# Bromodomain-containing protein 3, sequence (Q15059 whole entry, the tested form may be a part): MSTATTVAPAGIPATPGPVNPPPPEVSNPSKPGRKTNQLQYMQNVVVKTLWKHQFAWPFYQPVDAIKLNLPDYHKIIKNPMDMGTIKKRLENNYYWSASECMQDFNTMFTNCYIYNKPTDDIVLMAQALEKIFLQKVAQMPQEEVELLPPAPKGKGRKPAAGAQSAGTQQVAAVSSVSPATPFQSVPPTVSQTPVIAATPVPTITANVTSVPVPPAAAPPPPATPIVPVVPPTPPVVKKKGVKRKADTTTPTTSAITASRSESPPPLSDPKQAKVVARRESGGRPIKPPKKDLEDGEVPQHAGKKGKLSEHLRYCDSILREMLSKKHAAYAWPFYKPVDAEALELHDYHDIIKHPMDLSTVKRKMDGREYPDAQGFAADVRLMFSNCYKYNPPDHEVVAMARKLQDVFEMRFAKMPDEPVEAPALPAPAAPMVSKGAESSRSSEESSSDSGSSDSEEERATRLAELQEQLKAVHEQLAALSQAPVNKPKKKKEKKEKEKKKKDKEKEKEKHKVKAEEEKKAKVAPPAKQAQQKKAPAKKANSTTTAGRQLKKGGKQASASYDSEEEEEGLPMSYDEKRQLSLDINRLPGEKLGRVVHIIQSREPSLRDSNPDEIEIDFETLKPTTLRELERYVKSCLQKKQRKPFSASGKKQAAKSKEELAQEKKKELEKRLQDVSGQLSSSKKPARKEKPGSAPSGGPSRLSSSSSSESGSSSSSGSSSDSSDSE
# [12] = biological target: Bromodomain-containing protein 2 (Homo sapiens, UniProt P25440); assay: Inhibition of His-tagged recombinant BRD2 (unknown origin) (11 to 162 residues) using SGRGK(Ac)GGK(Ac)GLGK(Ac)GGAK(Ac)RHRK(Biotin)-OH as substrate measured after 1 hr by HTRF assay
# Bromodomain-containing protein 2, sequence (P25440 whole entry, the tested form may be a part): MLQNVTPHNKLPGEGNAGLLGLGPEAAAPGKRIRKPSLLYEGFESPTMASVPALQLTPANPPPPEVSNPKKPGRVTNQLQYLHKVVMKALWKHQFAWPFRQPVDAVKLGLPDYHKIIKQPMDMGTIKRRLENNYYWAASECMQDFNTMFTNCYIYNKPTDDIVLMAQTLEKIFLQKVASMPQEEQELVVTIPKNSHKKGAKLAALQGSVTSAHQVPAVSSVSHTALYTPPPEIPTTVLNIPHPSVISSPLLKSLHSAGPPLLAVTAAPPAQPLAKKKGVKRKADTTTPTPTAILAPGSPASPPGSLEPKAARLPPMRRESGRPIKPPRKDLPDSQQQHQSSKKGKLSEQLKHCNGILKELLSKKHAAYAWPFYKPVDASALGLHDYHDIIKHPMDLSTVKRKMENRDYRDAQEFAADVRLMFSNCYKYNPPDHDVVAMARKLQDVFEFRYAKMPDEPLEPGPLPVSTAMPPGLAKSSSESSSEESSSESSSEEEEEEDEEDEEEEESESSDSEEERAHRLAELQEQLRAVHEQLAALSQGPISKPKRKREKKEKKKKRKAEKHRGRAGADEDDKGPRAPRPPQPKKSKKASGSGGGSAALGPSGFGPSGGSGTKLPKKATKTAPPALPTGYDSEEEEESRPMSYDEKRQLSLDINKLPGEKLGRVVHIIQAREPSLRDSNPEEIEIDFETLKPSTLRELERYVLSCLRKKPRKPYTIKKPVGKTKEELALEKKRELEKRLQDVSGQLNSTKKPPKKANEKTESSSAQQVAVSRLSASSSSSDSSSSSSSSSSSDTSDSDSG
# [13] = Toxicity in mouse assessed as effect on aspartate aminotransferase level in serum at 30 mg/kg/day; format: organism-based; settings: in vivo
# [14] = biological target: T1, Bromodomain and PHD finger-containing protein 3 (Homo sapiens, UniProt Q9ULD4); assay: Inhibition of His-tagged recombinant BRPF3 (unknown origin) (11 to 188 residues) using SGRGK(Ac)GGK(Ac)GLGK(Ac)GGAK(Ac)RHRK(Biotin)-OH as substrate measured after 1 hr by HTRF assay
# T1 sequence (Q9ULD4 whole entry): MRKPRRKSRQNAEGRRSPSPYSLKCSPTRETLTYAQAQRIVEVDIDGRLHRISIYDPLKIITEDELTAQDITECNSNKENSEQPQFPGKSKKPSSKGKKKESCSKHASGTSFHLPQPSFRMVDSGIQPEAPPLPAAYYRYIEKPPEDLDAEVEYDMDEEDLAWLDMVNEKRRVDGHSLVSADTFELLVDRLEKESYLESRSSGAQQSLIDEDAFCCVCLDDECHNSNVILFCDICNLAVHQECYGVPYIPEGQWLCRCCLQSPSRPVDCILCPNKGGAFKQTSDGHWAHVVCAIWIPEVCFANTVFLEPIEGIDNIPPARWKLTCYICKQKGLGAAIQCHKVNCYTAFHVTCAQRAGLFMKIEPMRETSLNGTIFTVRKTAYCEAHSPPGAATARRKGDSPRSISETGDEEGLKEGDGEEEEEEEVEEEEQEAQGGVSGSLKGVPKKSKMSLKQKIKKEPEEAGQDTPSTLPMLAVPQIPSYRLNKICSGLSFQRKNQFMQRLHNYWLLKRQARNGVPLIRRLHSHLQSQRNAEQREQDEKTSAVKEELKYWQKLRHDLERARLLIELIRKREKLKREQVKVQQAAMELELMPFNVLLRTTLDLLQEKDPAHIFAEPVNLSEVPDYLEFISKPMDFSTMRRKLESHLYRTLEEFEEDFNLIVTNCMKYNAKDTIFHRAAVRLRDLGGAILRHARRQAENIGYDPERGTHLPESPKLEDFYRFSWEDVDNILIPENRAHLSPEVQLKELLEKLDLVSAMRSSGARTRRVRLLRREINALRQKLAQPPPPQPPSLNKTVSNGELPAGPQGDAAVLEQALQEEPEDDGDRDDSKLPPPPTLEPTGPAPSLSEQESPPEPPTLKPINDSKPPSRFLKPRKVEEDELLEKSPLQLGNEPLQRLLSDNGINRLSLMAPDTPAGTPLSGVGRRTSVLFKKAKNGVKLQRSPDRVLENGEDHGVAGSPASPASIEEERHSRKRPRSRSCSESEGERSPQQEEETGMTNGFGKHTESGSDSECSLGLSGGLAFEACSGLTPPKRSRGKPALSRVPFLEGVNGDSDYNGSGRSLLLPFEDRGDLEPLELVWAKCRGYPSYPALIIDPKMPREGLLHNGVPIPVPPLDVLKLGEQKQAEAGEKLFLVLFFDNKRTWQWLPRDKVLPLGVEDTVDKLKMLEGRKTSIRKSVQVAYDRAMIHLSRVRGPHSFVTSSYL
# [15] = Toxicity in mouse assessed as effect on serum creatinine level at 30 mg/kg/day; format: organism-based; settings: in vivo
# [16] = Oral bioavailability in ICR mouse at 30 mg/kg measured at 0.083 to 24 hrs by LC-MS/MS analysis; format: ADME, organism-based; settings: in vivo, time 0.083-24 hrs
# [17] = Clearance in ICR mouse at 2 mg/kg, iv measured at 0.083 to 24 hrs by LC-MS/MS analysis; format: ADME, organism-based; settings: in vivo, time 0.083-24 hrs
# [18] = AUC (0 to t) in ICR mouse at 30 mg/kg, po measured at 0.083 to 24 hrs by LC-MS/MS analysis; format: ADME, organism-based; design: time lower 0.083 hrs, dose 30 mg/kg, time upper 24 hrs, route po; settings: in vivo
# [19] = biological target: T2, Bromodomain-containing protein 1 (Homo sapiens, UniProt O95696); assay: Inhibition of His-tagged recombinant BRD1 (unknown origin) (11 to 190 residues) using SGRGK(Ac)GGK(Ac)GLGK(Ac)GGAK(Ac)RHRK(Biotin)-OH as substrate measured after 1 hr by HTRF assay
# T2 sequence (O95696 whole entry): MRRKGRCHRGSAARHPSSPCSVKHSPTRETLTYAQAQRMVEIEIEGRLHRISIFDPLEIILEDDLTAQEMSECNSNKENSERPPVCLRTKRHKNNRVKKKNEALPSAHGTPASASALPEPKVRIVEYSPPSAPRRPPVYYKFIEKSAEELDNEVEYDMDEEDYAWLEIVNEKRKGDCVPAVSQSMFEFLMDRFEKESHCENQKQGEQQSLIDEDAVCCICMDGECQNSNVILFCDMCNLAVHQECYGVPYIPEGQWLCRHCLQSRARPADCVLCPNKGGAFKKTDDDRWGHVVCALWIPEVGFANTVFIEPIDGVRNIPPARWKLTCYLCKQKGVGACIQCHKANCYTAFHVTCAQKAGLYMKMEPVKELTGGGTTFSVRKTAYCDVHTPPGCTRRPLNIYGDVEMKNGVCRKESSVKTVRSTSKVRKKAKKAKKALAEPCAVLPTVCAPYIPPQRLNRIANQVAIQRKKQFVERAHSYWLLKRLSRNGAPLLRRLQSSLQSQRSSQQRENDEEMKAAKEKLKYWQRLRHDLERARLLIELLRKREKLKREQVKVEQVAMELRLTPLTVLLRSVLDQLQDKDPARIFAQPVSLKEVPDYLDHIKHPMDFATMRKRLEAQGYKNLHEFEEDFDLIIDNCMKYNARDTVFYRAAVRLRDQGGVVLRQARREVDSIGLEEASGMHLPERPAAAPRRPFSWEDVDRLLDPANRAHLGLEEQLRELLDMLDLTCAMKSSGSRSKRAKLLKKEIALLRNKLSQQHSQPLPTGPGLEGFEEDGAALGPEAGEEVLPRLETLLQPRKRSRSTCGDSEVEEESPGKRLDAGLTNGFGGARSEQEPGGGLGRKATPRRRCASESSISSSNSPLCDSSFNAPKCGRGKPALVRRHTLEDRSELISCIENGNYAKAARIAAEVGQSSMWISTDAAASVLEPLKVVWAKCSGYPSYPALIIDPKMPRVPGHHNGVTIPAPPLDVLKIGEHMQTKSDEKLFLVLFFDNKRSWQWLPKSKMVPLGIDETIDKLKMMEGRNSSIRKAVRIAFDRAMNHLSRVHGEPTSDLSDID
# [20] = Toxicity in mouse assessed as effect on alanine aminotransferase level in serum at 30 mg/kg/day; format: organism-based; settings: in vivo
# [21] = AUC (0 to infinity) in ICR mouse at 30 mg/kg, po measured at 0.083 to 24 hrs by LC-MS/MS analysis; format: ADME, organism-based; design: time lower 0.083 hrs, dose 30 mg/kg, time upper 24 hrs, route po; settings: in vivo
# [22] = Toxicity in mouse assessed as pathological changes in heart at 30 mg/kg/day by H and E staining method; format: organism-based; settings: in vivo
# [23] = system: Mus musculus; assay: Nephroprotective activity against unilateral ureteral obstruction kidney injury C57BL/6J mouse model assessed as decreased fibrotic scores at 100 mg/kg, ip administered for 8 consecutive days by Masson's staining based assay; format: functional, organism-based; settings: time 8.0 day
# [24] = system: Mus musculus; assay: Nephroprotective activity against unilateral ureteral obstruction kidney injury C57BL/6J mouse model assessed as decreased kidney damage at 100 mg/kg, ip administered for 8 consecutive days by H & E staining based assay; format: functional, organism-based; settings: time 8.0 day
# [25] = system: Mus musculus; assay: Anti-fibrotic activity against unilateral ureteral obstruction kidney injury C57BL/6J mouse model assessed as suppression of UUO-induced alpha-SMA expression in kidney at 100 mg/kg, ip administered daily measured after 7 days by immunohistochemistry staining analysis; format: functional, organism-based; settings: time 7.0 day
# [26] = system: Mus musculus; assay: Nephroprotective activity against unilateral ureteral obstruction kidney injury C57BL/6J mouse model assessed as decreased tubular injury score at 100 mg/kg, ip administered for 8 consecutive days by H & E staining based assay; format: functional, organism-based; settings: time 8.0 day
smiles,measurement,setting,value
O=C1NC=C(c2ccc3ccn(Cc4ccc(F)cc4)c3c2)C2C=CNC12 (stereo not drawn),pIC50,[1],6.38
Cc1noc(C)c1-c1ccc2ccn(C3CCCC3)c2c1,pIC50,[1],< 5.52
CCCC(C)n1ccc2ccc(C3=CNC(=O)C4NC=CC34)cc21 (stereo not drawn),pIC50,[1],6.24
Cn1cc(-c2ccc3ccn(Cc4ccccn4)c3c2)c2cc[nH]c2c1=O,half-life,[2],80.4 min
same,Activity,[3],Non-Toxic
same,Activity,[4],Non-Toxic
same,Activity,[5],Non-Toxic
same,pIC50,[6],< 6.00
same,Tmax,[7],11.4 min
same,Activity,[8],Non-Toxic
same,Vd,[9],2.08 L/kg
same,pIC50,[1],6.97
same,Cmax,[10],390 ng/mL
same,pIC50,[11],6.30
same,pIC50,[12],6.14
same,Activity,[13],Non-Toxic
same,pIC50,[14],< 6.00
same,Activity,[15],Non-Toxic
same,bioavailability,[16],7.91%
same,clearance,[17],125 mL/min/kg
same,AUC(0-t),[18],319 ng·h/mL
same,pIC50,[19],< 6.00
same,Activity,[20],Non-Toxic
same,AUC(0-inf),[21],323 ng·h/mL
same,Activity,[22],Non-Toxic
Cc1noc(C)c1-c1ccc2c(C)cn(Cc3ccccc3)c2c1,pIC50,[1],< 5.52
Cc1noc(C)c1-c1ccc2ccn(Cc3cc(F)cc(F)c3)c2c1,pIC50,[1],< 5.52
O=C1NC=C(c2ccc3ccn(Cc4cc(F)cc(F)c4)c3c2)C2C=CNC12 (stereo not drawn),pIC50,[1],6.46
Cc1noc(C)c1-c1ccc2ccn(Cc3ccccn3)c2c1,pIC50,[1],6.32
Cc1sc2c(c1C)C(c1ccc(Cl)cc1)=N[C@@H](C(=O)OC(C)(C)C)c1nnc(C)n1-2,Activity,[23],Active
same,pIC50,[1],7.04
same,Activity,[24],Active
same,Activity,[25],Active
same,Activity,[26],Active
Cc1noc(C)c1-c1ccc2ccn(Cc3ccccc3)c2c1,pIC50,[1],5.58
Cc1noc(C)c1-c1ccc2c(C)cn(Cc3cc(F)cc(F)c3)c2c1,pIC50,[1],< 5.52
Cc1cn(Cc2cc(F)cc(F)c2)c2cc(C3=CN(C)C(=O)C4NC=CC34)ccc12 (stereo not drawn),pIC50,[1],6.38
Cc1cn(Cc2ccccc2)c2cc(-c3cn(C)c(=O)c4[nH]ccc34)ccc12,pIC50,[1],6.29
Cc1noc(C)c1-c1ccc2ccn(Cc3ccc(F)cc3)c2c1,pIC50,[1],< 5.52
CC(c1ccccc1)n1ccc2ccc(-c3cn(C)c(=O)c4[nH]ccc34)cc21 (stereo not drawn),pIC50,[1],6.30
CCC(C)n1ccc2ccc(-c3c(C)noc3C)cc21 (stereo not drawn),pIC50,[1],< 5.52
Cc1noc(C)c1-c1ccc2ccn(Cc3ccc(C(F)(F)F)cc3)c2c1,pIC50,[1],< 5.52
COc1cc(Cn2ccc3ccc(-c4c(C)noc4C)cc32)cc(OC)c1,pIC50,[1],< 5.52
O=C1NC=C(c2ccc3ccn(Cc4ccccc4)c3c2)C2C=CNC12 (stereo not drawn),pIC50,[1],6.33
COc1cc(Cn2ccc3ccc(C4=CNC(=O)C5NC=CC45)cc32)cc(OC)c1 (stereo not drawn),pIC50,[1],6.25
Cc1noc(C)c1-c1ccc2ccn(C(C)c3ccccc3)c2c1 (stereo not drawn),pIC50,[1],< 5.52
CCCC(C)n1ccc2ccc(-c3c(C)noc3C)cc21 (stereo not drawn),pIC50,[1],5.61
CCC(C)n1ccc2ccc(-c3cn(C)c(=O)c4[nH]ccc34)cc21 (stereo not drawn),pIC50,[1],6.17
